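These data come from cells grown in 96-well plates and exposed to compound for 48 hours at five concentrations. TGI is the concentration that stops growth completely.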
Assays:
Assay in all cases: growth of human tumour cells (NCI), 48 h
HT29 colon = system: HT29 colon
SK-MEL-5 melanoma = system: SK-MEL-5 melanoma
KM12 colon = system: KM12 colon
COLO 205 colon = system: COLO 205 colon
SF-268 CNS = system: SF-268 CNS
OVCAR-5 ovarian = system: OVCAR-5 ovarian
MDA-MB-231 breast = system: MDA-MB-231 breast
HOP-62 NSCLC = system: HOP-62 NSCLC
A498 renal = system: A498 renal
MCF7 breast = system: MCF7 breast
SNB-75 CNS = system: SNB-75 CNS
MDA-MB-435 = system: MDA-MB-435
CAKI-1 renal = system: CAKI-1 renal
MDA-N = system: MDA-N
NCI-H226 lung = system: NCI-H226 lung
NCI-H522 lung = system: NCI-H522 lung
UACC-62 melanoma = system: UACC-62 melanoma
HCT-116 colon = system: HCT-116 colon
OVCAR-8 ovarian = system: OVCAR-8 ovarian
OVCAR-4 ovarian = system: OVCAR-4 ovarian
IGROV1 ovarian = system: IGROV1 ovarian
HS 578T breast = system: HS 578T breast
ACHN renal = system: ACHN renal
UACC-257 melanoma = system: UACC-257 melanoma
SF-539 CNS = system: SF-539 CNS
RXF 393 renal = system: RXF 393 renal
DU-145 prostate = system: DU-145 prostate
SF-295 CNS = system: SF-295 CNS
HCT-15 colon = system: HCT-15 colon
SK-MEL-2 melanoma = system: SK-MEL-2 melanoma
U251 CNS = system: U251 CNS
EKVX NSCLC = system: EKVX NSCLC
SR leukemia = system: SR leukemia
SK-MEL-28 melanoma = system: SK-MEL-28 melanoma
SK-OV-3 ovarian = system: SK-OV-3 ovarian
786-0 renal = system: 786-0 renal
BT-549 breast = system: BT-549 breast
SN12C renal = system: SN12C renal
PC-3 prostate = system: PC-3 prostate
TK-10 renal = system: TK-10 renal
MALME-3M melanoma = system: MALME-3M melanoma
HOP-92 NSCLC = system: HOP-92 NSCLC
M14 melanoma = system: M14 melanoma
SNB-19 CNS = system: SNB-19 CNS
NCI-H23 lung = system: NCI-H23 lung
SW-620 colon = system: SW-620 colon
CCRF-CEM leukemia = system: CCRF-CEM leukemia
K-562 leukemia = system: K-562 leukemia
UO-31 renal = system: UO-31 renal
T-47D breast = system: T-47D breast
HL-60(TB) leukemia = system: HL-60(TB) leukemia
A549 NSCLC = system: A549 NSCLC
OVCAR-3 ovarian = system: OVCAR-3 ovarian
NCI-H460 lung = system: NCI-H460 lung
HCC-2998 colon = system: HCC-2998 colon
LOX IMVI melanoma = system: LOX IMVI melanoma
RPMI-8226 leukemia = system: RPMI-8226 leukemia
NCI/ADR-RES ovarian = system: NCI/ADR-RES ovarian
MOLT-4 leukemia = system: MOLT-4 leukemia

With COc1ccc(C=Nc2c(O)ccc3ccccc23)cc1OC the TGI (HT29 colon) was > 100 µM, the TGI (SK-MEL-5 melanoma) was > 100 µM and the TGI (KM12 colon) was > 100 µM. For the same molecule, the TGI (COLO 205 colon) was > 100 µM, the TGI (SF-268 CNS) was > 100 µM and the TGI (OVCAR-5 ovarian) was > 100 µM. The TGI (MDA-MB-231 breast) was > 100 µM, the TGI (HOP-62 NSCLC) was > 100 µM and the TGI (A498 renal) was > 100 µM. The TGI (MCF7 breast) was > 100 µM, the TGI (SNB-75 CNS) was > 100 µM and the TGI (MDA-MB-435) was 33.4 µM. For the same molecule, the TGI (CAKI-1 renal) was > 100 µM, the TGI (MDA-N) was 35.1 µM and the TGI (NCI-H226 lung) was > 100 µM. The TGI (NCI-H522 lung) was 64.2 µM, the TGI (UACC-62 melanoma) was > 100 µM and the TGI (HCT-116 colon) was > 100 µM. The TGI (OVCAR-8 ovarian) was > 100 µM, the TGI (OVCAR-4 ovarian) was > 100 µM and the TGI (IGROV1 ovarian) was > 100 µM. For the same molecule, the TGI (HS 578T breast) was > 100 µM, the TGI (ACHN renal) was > 100 µM and the TGI (UACC-257 melanoma) was > 100 µM. For the same molecule, the TGI (SF-539 CNS) was > 100 µM, the TGI (RXF 393 renal) was > 100 µM and the TGI (DU-145 prostate) was > 100 µM. The TGI (SF-295 CNS) was > 100 µM, the TGI (HCT-15 colon) was > 100 µM and the TGI (SK-MEL-2 melanoma) was > 100 µM. For the same molecule, the TGI (U251 CNS) was > 100 µM, the TGI (EKVX NSCLC) was > 100 µM and the TGI (SR leukemia) was > 100 µM. For the same molecule, the TGI (SK-MEL-28 melanoma) was > 100 µM, the TGI (SK-OV-3 ovarian) was > 100 µM and the TGI (786-0 renal) was > 100 µM. For the same molecule, the TGI (BT-549 breast) was > 100 µM, the TGI (SN12C renal) was > 100 µM and the TGI (PC-3 prostate) was > 100 µM. For the same molecule, the TGI (TK-10 renal) was > 100 µM, the TGI (MALME-3M melanoma) was 41.2 µM and the TGI (HOP-92 NSCLC) was 59 µM. The TGI (M14 melanoma) was > 100 µM, the TGI (SNB-19 CNS) was > 100 µM and the TGI (NCI-H23 lung) was > 100 µM. The TGI (SW-620 colon) was > 100 µM, the TGI (CCRF-CEM leukemia) was > 100 µM and the TGI (K-562 leukemia) was > 100 µM. The TGI (UO-31 renal) was > 100 µM, the TGI (T-47D breast) was > 100 µM and the TGI (HL-60(TB) leukemia) was > 100 µM. For the same molecule, the TGI (A549 NSCLC) was > 100 µM, the TGI (OVCAR-3 ovarian) was 70.9 µM and the TGI (NCI-H460 lung) was > 100 µM. For the same molecule, the TGI (HCC-2998 colon) was > 100 µM, the TGI (LOX IMVI melanoma) was > 100 µM and the TGI (RPMI-8226 leukemia) was > 100 µM. The TGI (NCI/ADR-RES ovarian) was > 100 µM.
In the case of CC(C)c1cc(C(F)(F)F)nc(NNc2nc(C(C)C)cc(C(F)(F)F)n2)n1, the TGI (HT29 colon) is reported as > 100 µM, the TGI (SK-MEL-5 melanoma) is reported as > 100 µM and the TGI (KM12 colon) is reported as > 100 µM. The TGI (COLO 205 colon) was > 100 µM, the TGI (SF-268 CNS) was > 100 µM and the TGI (OVCAR-5 ovarian) was > 100 µM. The TGI (MDA-MB-231 breast) was > 100 µM, the TGI (HOP-62 NSCLC) was 86.4 µM and the TGI (A498 renal) was > 100 µM. For the same molecule, the TGI (MCF7 breast) was > 100 µM, the TGI (SNB-75 CNS) was 95.8 µM and the TGI (MDA-MB-435) was > 100 µM. For the same molecule, the TGI (CAKI-1 renal) was > 100 µM, the TGI (MDA-N) was > 100 µM and the TGI (NCI-H226 lung) was > 100 µM. The TGI (NCI-H522 lung) was > 100 µM, the TGI (UACC-62 melanoma) was > 100 µM and the TGI (HCT-116 colon) was > 100 µM. For the same molecule, the TGI (OVCAR-8 ovarian) was > 100 µM, the TGI (OVCAR-4 ovarian) was > 100 µM and the TGI (IGROV1 ovarian) was > 100 µM. The TGI (HS 578T breast) was > 100 µM, the TGI (ACHN renal) was > 100 µM and the TGI (UACC-257 melanoma) was > 100 µM. The TGI (SF-539 CNS) was > 100 µM, the TGI (RXF 393 renal) was > 100 µM and the TGI (DU-145 prostate) was > 100 µM. The TGI (SF-295 CNS) was > 100 µM, the TGI (HCT-15 colon) was > 100 µM and the TGI (SK-MEL-2 melanoma) was > 100 µM. The TGI (U251 CNS) was > 100 µM, the TGI (EKVX NSCLC) was > 100 µM and the TGI (SR leukemia) was > 100 µM. The TGI (SK-MEL-28 melanoma) was > 100 µM, the TGI (SK-OV-3 ovarian) was > 100 µM and the TGI (786-0 renal) was > 100 µM. The TGI (BT-549 breast) was > 100 µM, the TGI (SN12C renal) was > 100 µM and the TGI (PC-3 prostate) was > 100 µM. The TGI (TK-10 renal) was 56.1 µM, the TGI (MALME-3M melanoma) was > 100 µM and the TGI (HOP-92 NSCLC) was > 100 µM. The TGI (M14 melanoma) was > 100 µM, the TGI (SNB-19 CNS) was > 100 µM and the TGI (NCI-H23 lung) was > 100 µM. For the same molecule, the TGI (SW-620 colon) was > 100 µM, the TGI (CCRF-CEM leukemia) was > 100 µM and the TGI (K-562 leukemia) was > 100 µM. The TGI (UO-31 renal) was > 100 µM, the TGI (T-47D breast) was > 100 µM and the TGI (HL-60(TB) leukemia) was > 100 µM. For the same molecule, the TGI (A549 NSCLC) was > 100 µM, the TGI (OVCAR-3 ovarian) was 85.5 µM and the TGI (NCI-H460 lung) was > 100 µM. For the same molecule, the TGI (MOLT-4 leukemia) was > 100 µM, the TGI (RPMI-8226 leukemia) was > 100 µM and the TGI (NCI/ADR-RES ovarian) was > 100 µM.
For COC(=O)C12CCC(C(F)(F)C1=O)C2(C)C (stereo unspecified), the TGI (HT29 colon) was > 100 µM, the TGI (SK-MEL-5 melanoma) was > 100 µM and the TGI (KM12 colon) was > 100 µM. For the same molecule, the TGI (COLO 205 colon) was > 100 µM, the TGI (SF-268 CNS) was > 100 µM and the TGI (OVCAR-5 ovarian) was > 100 µM. The TGI (MDA-MB-231 breast) was > 100 µM, the TGI (HOP-62 NSCLC) was > 100 µM and the TGI (A498 renal) was > 100 µM. For the same molecule, the TGI (MCF7 breast) was > 100 µM, the TGI (SNB-75 CNS) was > 100 µM and the TGI (MDA-MB-435) was > 100 µM. The TGI (CAKI-1 renal) was > 100 µM, the TGI (MDA-N) was > 100 µM and the TGI (NCI-H226 lung) was > 100 µM. For the same molecule, the TGI (NCI-H522 lung) was > 100 µM, the TGI (UACC-62 melanoma) was > 100 µM and the TGI (HCT-116 colon) was > 100 µM. The TGI (OVCAR-8 ovarian) was > 100 µM, the TGI (OVCAR-4 ovarian) was > 100 µM and the TGI (IGROV1 ovarian) was > 100 µM. The TGI (HS 578T breast) was > 100 µM, the TGI (ACHN renal) was > 100 µM and the TGI (UACC-257 melanoma) was > 100 µM. The TGI (SF-539 CNS) was > 100 µM, the TGI (RXF 393 renal) was > 100 µM and the TGI (DU-145 prostate) was > 100 µM. For the same molecule, the TGI (SF-295 CNS) was > 100 µM, the TGI (HCT-15 colon) was > 100 µM and the TGI (SK-MEL-2 melanoma) was > 100 µM. The TGI (U251 CNS) was > 100 µM, the TGI (SR leukemia) was > 100 µM and the TGI (SK-MEL-28 melanoma) was > 100 µM. The TGI (SK-OV-3 ovarian) was > 100 µM, the TGI (786-0 renal) was > 100 µM and the TGI (BT-549 breast) was > 100 µM. The TGI (SN12C renal) was > 100 µM, the TGI (PC-3 prostate) was > 100 µM and the TGI (TK-10 renal) was > 100 µM. The TGI (MALME-3M melanoma) was > 100 µM, the TGI (HOP-92 NSCLC) was > 100 µM and the TGI (M14 melanoma) was > 100 µM. The TGI (SNB-19 CNS) was > 100 µM, the TGI (NCI-H23 lung) was > 100 µM and the TGI (SW-620 colon) was > 100 µM. The TGI (UO-31 renal) was > 100 µM, the TGI (T-47D breast) was > 100 µM and the TGI (HL-60(TB) leukemia) was > 100 µM. The TGI (A549 NSCLC) was > 100 µM, the TGI (OVCAR-3 ovarian) was > 100 µM and the TGI (NCI-H460 lung) was > 100 µM. The TGI (HCC-2998 colon) was > 100 µM, the TGI (LOX IMVI melanoma) was > 100 µM and the TGI (MOLT-4 leukemia) was > 100 µM. The TGI (RPMI-8226 leukemia) was > 100 µM and the TGI (NCI/ADR-RES ovarian) was > 100 µM.

— PubChem BioAssay (NCI)
